Experimental data: patent US7569572B2, “Pyrazolo[4,3-D]pyrimidines” (Pfizer Inc, priority 2004, dated 2009)
Where a name gives a salt, the structure may show the parent alone.

target: T1, human platelet PDE5 (Homo sapiens, UniProt O76074); experiment: Method A: PDE-5 Inhibition Scintillation Proximity Assay (SPA) - Human Platelet; type: biochemical; settings: cGMP substrate 500 nM, PDE5 isolated from human platelets
T1 construct: utilizes PDE5 isolated from human platelets; from tissue; host or cells: human platelets
Text: Method A: PDE-5 Inhibition Scintillation Proximity Assay (SPA)—Human Platelet
The assay measures the inhibition of human platelet PDE5 enzyme activity by a test compound in an in vitro assay that utilizes PDE5 isolated from human platelets. The PDE5 enzyme can be isolated from platelets essentially by a modification of the method of Thompson, W J et al.; Biochemistry 18(23), 5228-5237, 1979, as described by Ballard S A et al.; J. Urology 159(6), 2164-2171, 1998. PDE5 catalyzes the hydrolysis of [^3H]cGMP to the 5′ nucleotide [^3H]GMP. [^3H]GMP binds to yttrium silicate SPA beads and is detected by scintillation counting. […] The inhibition of enzyme activity is calculated relative to total PDE5 activity of uninhibited controls.
(§1) PDE5 IC50 Assay: 96-Well Microtiter Plate Format
(§2) Buffer A: 20 mM Tris-HCl, 5 mM MgCl2, pH 7.4
(§3) Buffer B: 2 mg/ml BSA in Buffer A (enzyme buffer)
cGMP substrate: Final concentration of 500 nM in assay
The amount of ^3H-labeled substrate added depends upon the specific activity of [^3H]cGMP, and it is diluted with a 10 mM stock of cold cGMP in Buffer A for a final substrate concentration of 500 nM in the assay.
(§4) PDE enzyme: Prepared in Buffer B. The dilution factor is determined by enzyme activity.
SPA beads: 20 mg/ml suspension prepared in dH2O.
Stocks of standard and test compounds are prepared at 5 mM in 100% DMSO. Compounds are serially diluted in separate dilution plates using a 10-point ½ log dilution format. 2 μl of the compound dilutions are added in duplicate to the wells of the assay plate; 2 μl of 100% DMSO are added to designated control wells. 25 μl of Buffer A are added to all wells. 25 μl of Buffer B are added to the negative control wells, and 25 μl of enzyme are added to the remaining wells. 50 μl of substrate are added to each well. Plates are sealed and incubated for 60 minutes on a plate shaker at 30 C. 50 μl of SPA beads are added to stop the reaction. The plates are again sealed and shaken for 15 minutes to allow the beads to bind the GMP product. The beads are allowed to settle for 30 minutes and then read on a NXT TopCount. Data is analyzed with the ECADA application. In this analysis, % inhibition is calculated: (mean maximum−compound value/(mean maximum−mean minimum)×100. IC50s are determined from sigmoid dose-response curves of enzyme activity vs compound concentration.

Compound | IC50 [nM]
CCOCCn1nc(CN(C)C(C)=O)c2nc(NC)nc(Nc3cc(C)ccn3)c21 [Example 14] | 5.5
CCOCCn1nc(CNC)c2nc(N(C)C)nc(Nc3ccncn3)c21 [Example 35, 1-(2-ethoxyethyl)-N^5,N^5-dimethyl-3-(methylaminomethyl)-N^7-pyrimidin-4-yl-1H-pyrazolo[4,3-d]pyrimidine-5,7-diamine hydrochloride] | > 100
CCOCCn1nc(CN(C)C)c2nc(N(C)C)nc(Nc3cc(C)ccn3)c21 [Example 28] | 6.9
CCOCCn1nc(CNC(=O)CC)c2nc(NC)nc(Nc3cc(C)ccn3)c21 [Example 10] | 2.5
CCNCc1nn(CCOCC)c2c(Nc3cc(C)ccn3)nc(N(C)C)nc12 [Example 31, 1-(2-ethoxyethyl)-3-(ethylaminomethyl)-N^5,N^5-dimethyl-N^7-(4-methylpyridin-2-yl)-1H-pyrazolo[4,3-d]pyrimidine-5,7-diamine] | 3.4
CCOCCn1nc(CNC)c2nc(N(C)CCO)nc(Nc3cc(C)ccn3)c21 [Example 36, 2-{[1-(2-ethoxyethyl)-3-(methylaminomethyl)-7-(4-methylpyridin-2-ylamino)-1H-pyrazolo[4,3-d]pyrimidin-5-yl]methylamino}ethanol hydrochloride] | 188
CCOCCn1nc(CNC)c2nc(N(C)CCOC)nc(Nc3cc(C)ccn3)c21 [Example 37, 1-(2-ethoxyethyl)-N^5-(2-methoxyethyl)-N^5-methyl-3-(methylaminomethyl)-N^7-(4-methylpyridin-2-yl)-1H-pyrazolo[4,3-d]pyrimidine-5,7-diamine hydrochloride] | 4.4
CCOCCn1nc(CN2CCNCC2)c2nc(N(C)C)nc(Nc3cc(C)ccn3)c21 [Example 40, 1-(2-ethoxyethyl)-N^5,N^5-dimethyl-N^7-(4-methylpyridin-2-yl)-3-(piperazin-1-ylmethyl)-1H-pyrazolo[4,3-d]pyrimidine-5,7-diamine hydrochloride] | 5.8

More lines, now with the values ahead:

IC50 [nM] | Compound
2.1 | CCOCCn1nc(CN2CCC[C@H]2COC)c2nc(N(C)C)nc(Nc3cc(C)ccn3)c21 [Example 20]
1.25 | CCOCCn1nc(CNS(C)(=O)=O)c2nc(N(C)C)nc(Nc3cc(C)ccn3)c21 [Example 2, N-[5-dimethylamino-1-(2-ethoxyethyl)-7-(4-methylpyridin-2-ylamino)-1H-pyrazolo[4,3-d]pyrimidin-3-ylmethyl]methanesulfonamide]
1.12 | CCOCCn1nc(CNC(=O)CN(C)C)c2nc(N(C)C)nc(Nc3cc(C)ccn3)c21 [Example 1, 2-Dimethylamino-N-[5-dimethylamino-1-(2-ethoxyethyl)-7-(4-methylpyridin-2-ylamino)-1H-pyrazolo[4,3-d]pyrimidin-3-ylmethyl]acetamide]
1.06 | CCOCCn1nc(CN2CCOCC2)c2nc(N(C)C)nc(Nc3cc(C)ccn3)c21 [Example 30, 1-(2-ethoxyethyl)-N^5,N^5-dimethyl-3-[(4-morpholino)methyl]-N^7-(4-methylpyridin-2-yl)-1H-pyrazolo[4,3-d]pyrimidine-5,7-diamine]
0.77 | CCOCCn1nc(CNC(=O)CO)c2nc(N(C)C)nc(Nc3cc(C)ccn3)c21 [Example 4, N-[5-dimethylamino-1-(2-ethoxyethyl)-7-(4-methylpyridin-2-ylamino)-1H-pyrazolo[4,3-d]pyrimidin-3-ylmethyl]-2-hydroxyacetamide]
0.58 | CCNc1nc(Nc2cc(C)ccn2)c2c(n1)c(CNC(=O)CO)nn2CCOCC [Example 5]
0.48 | CCNc1nc(Nc2cc(C)ccn2)c2c(n1)c(CN(C)C(C)=O)nn2CCOCC [Example 15, N-[1-(2-ethoxyethyl)-5-ethylamino-7-(4-methylpyridin-2-ylamino)-1H-pyrazolo[4,3-d]pyrimidin-3-ylmethyl]-N-methylacetamide]
0.39 | CCOCCn1nc(CNC(C)=O)c2nc(N(C)C)nc(Nc3cc(C)ccn3)c21 [Example 6, N-[5-dimethylamino-1-(2-ethoxyethyl)-7-(4-methylpyridin-2-ylamino)-1H-pyrazolo[4,3-d]pyrimidin-3-ylmethyl]acetamide]
0.33 | CCOCCn1nc(CNC(=O)CC)c2nc(N(C)C)nc(Nc3cc(C)ccn3)c21 [Example 9, N-[5-dimethylamino-1-(2-ethoxyethyl)-7-(4-methylpyridin-2-ylamino)-1H-pyrazolo[4,3-d]pyrimidin-3-ylmethyl]propionamide]

target: T1, human platelet PDE5; experiment: Method B: PDE-5 Inhibition Scintillation Proximity Assay (SPA) - Human Platelet (modified protocol of Method A); type: biochemical; settings: cGMP substrate 50 nM, PDE5 isolated from human platelets
Protocol: Method B: PDE-5 Inhibition Scintillation Proximity Assay (SPA)—Human Platelet
This method is a modified protocol of Method A.
The assay measures the inhibition of human platelet PDE5 enzyme activity by a test compound in an in vitro assay that utilizes PDE5 isolated from human platelets. PDE5 catalyzes the hydrolysis of [^3H]cGMP to the 5′ nucleotide [^3H]GMP. [^3H]GMP binds to yttrium silicate SPA beads and is detected by scintillation counting. The inhibition of enzyme activity is calculated relative to total PDE5 activity of uninhibited controls.
as §1, §2, §3
cGMP substrate: Final concentration of 50 nM in assay
The amount of ^3H-labeled substrate added depends upon the specific activity of [^3H]cGMP, and it is diluted in Buffer A.
as §4
SPA beads: 4 mg/ml suspension prepared in dH2O.
Stocks of standard and test compounds are prepared at 2 mM in 100% DMSO. Compounds are serially diluted in separate dilution plates using an 8-point ⅕ log dilution format such that the starting concentration in the assay is 2 μM for an initial IC50 screen. 27 μl of Buffer A are added to the wells of the assay plates. From the dilution plates, 3 μl of diluted compounds are delivered in duplicate or 3 μl of 100% DMSO (for positive and negative controls) are added. 30 μl of enzyme are added. For the negative control wells, Buffer B is substituted in place of the enzyme. 30 μl of labeled substrate are added to all wells.
After incubating for 60 minutes at room temperature, the reaction is stopped with the addition of 30 μl of the yttrium silicate beads. These beads are dense and require constant agitation while being added to the plate. The plates are sealed and shaken on a plate shaker for fifteen minutes to allow the beads to bind the GMP product.
After allowing the beads to settle for 30 minutes, plates are read on a NXT TopCount and data is analyzed in the Bioassay Solver application. Percent inhibition values are calculated using the means of the 0% and 100% controls on each plate. The estimates of the 4-parameters of the logistic, sigmoid dose-response model are then calculated using the well-level percent inhibition values for each compound. These estimates are used to calculate the concentration that corresponds to 50% inhibition.

IC50 [nM] | Compound
0.14 | C[C@@H]1CN(c2nc(Nc3ccncn3)c3c(n2)c(CN2CCSCC2)nn3CCOCC(F)(F)F)CCN1 [Example 46, 5-[(3R)-3-methylpiperazin-1-yl]-N-pyrimidin-4-yl-3-(thiomorpholin-4-ylmethyl)-1-[2-(2,2,2-trifluoroethoxy)ethyl]-1H-pyrazolo[4,3-d]pyrimidin-7-amine trifluoroacetate]
1.25 | C[C@@H]1CN(c2nc(Nc3ccncn3)c3c(n2)c(CN2CCCCC2)nn3CCOCC(F)(F)F)CCN1 [Example 45, 5-[(3R)-3-Methylpiperazin-1-yl]-3-(piperidin-1-ylmethyl)-N-pyrimidin-4-yl-1-[2-(2,2,2-trifluoroethoxy)ethyl]-1H-pyrazolo[4,3-d]pyrimidin-7-amine trifluoroacetate]
1.06 | FC(F)(F)CNCc1nn(CCOCC(F)(F)F)c2c(Nc3ccncn3)nc(N3CCNCC3)nc12 [Example 50, 1-(2-(2,2,2-trifluoroethoxy)ethyl)-3-((2,2,2-trifluoroethylamino)methyl)-5-(piperazin-1-yl)-N-(pyrimidin-4-yl)-1H-pyrazolo[4,3-d]pyrimidin-7-amine trifluoroacetate]
0.21 | FC(F)(F)COCCn1nc(CN2CCOCC2)c2nc(N3CCNCC3)nc(Nc3ccncn3)c21 [Example 43, 3-(Morpholin-4-ylmethyl)-5-piperazin-1-yl-N-pyrimidin-4-yl-1-[2-(2,2,2-trifluoroethoxy)ethyl]-1H-Pyrazolo[4,3-d]pyrimidin-7-amine trifluoroacetate]
0.32 | C[C@@H]1CN(c2nc(Nc3ccncn3)c3c(n2)c(CN2CCOCC2)nn3CCOCC(F)(F)F)CCN1 [Example 42, 5-[(3R)-3-Methylpiperazin-1-yl]-3-(morpholin-4-ylmethyl)-N-pyrimidin-4-yl-1-[2-(2,2,2-trifluoroethoxy)ethyl]-1H-pyrazolo[4,3-d]pyrimidin-7-amine trifluoroacetate]
1.8 | FC(F)(F)COCCn1nc(CN2CCNCC2)c2nc(N3CCNCC3)nc(Nc3ccncn3)c21 [Example 41, 5-Piperazin-1-yl-3-(piperazin-1-ylmethyl)-N-pyrimidin-4-yl-1-[2-(2,2,2-trifluoroethoxy)ethyl]-1H-pyrazolo[4,3-d]pyrimidin-7-amine trifluoroacetate]
0.79 | CCN(C)c1nc(Nc2ccncn2)c2c(n1)c(CN1CCSCC1)nn2CCOCC(F)(F)F [Example 44, N^5-Ethyl-N^5-methyl-N^7-pyrimidin-4-yl-3-(thiomorpholin-4-ylmethyl)-1-[2-(2,2,2-trifluoroethoxy)ethy]-1H-pyrazolo[4,3-d]pyrimidine-5,7-diamine trifluoroacetate]
